Patent US9453242B2, “Method and culture medium for preparing mammalian ovum or embryo in which zona pellucida has been thinned or eliminated, and method for fertilization using mammalian ovum prepared by same method” (NATIONAL UNIVERISTY CORPORATION KUMAMOTO UNIVERSITY, priority 2010, dated 2016)
Like-named read-outs stand apart in the source and are kept apart here.

Tests used:
[1] = tested on: zona pellucida of a mouse unfertilized ovum; assay: Swelling of zona pellucida (area in zona pellucida) of unfertilized ovum; type: cell-based; details: 37° C., 6 hours
Experimental: Further, the influence of glutathione on swelling of zona pellucida was confirmed. […] Preparation of ovum” were treated with HTF culture media containing glutathione at various concentration at 37° C. for 6 hours, then, the area in zona pellucida was photographed under a microscope and measured by an image analysis software. The conditions of zona pellucida at glutathione concentrations of 0 mM, 1 mM, 2 mM and 10 mM were observed by an invert microscope.
The influence of other reducing agents (DTT, ascorbic acid (VC) and epicatechin (EC)) exerted on thinning and swelling of zona pellucida was confirmed in the same manner as in Example 2. The extent of swelling of the zona pellucida of an unfertilized ovum by the concentration of each reducing agent was photographed under a microscope, and determined according to the following formula. % Relative area in ZP=(area of zona pellucida in each experiment/area of zona pellucida at 0 mM)×100

[2] = tested on: frozen sperms of C57BL/6J mice; assay: In vitro fertilization after sperm pre-incubation with MBCD and/or glutathione; type: cell-based, mouse; details: for number of 2-cell stage embryo(%) / number of 2-cell stage embryo: sperm pre-incubation MBCD −
Experimental: A sperm suspension is pre-incubated in 90 μl of a TYH culture medium at 37° C. for 30 minutes, and under a stereomicroscope, sperms showing motility are collected, avoiding nonmotile sperms, and used for fertilization. The pre-incubated sperm suspension (10 μl) is added to 90 μl of an HTF culture medium (±glutathione) into which cumulus-oocyte complexes (COCs) have been previously introduced (insemination), and these are co-incubated in an incubator for 5 to 6 hours (37° C., 5% CO2), thereby performing fertilization. Thereafter, the ovum is washed with drops of new HTF, and the ovum is observed. Those judged to parthenogenetic (only one pronucleus is recognized in ooplasm) are excluded, and on the following day (24 hours after insemination), only 2-cell stage embryos are selected, and fertilization rate is determined according to the following formula. In vitro fertilization rate (%)=(number of 2-cell stage embryo)/(number of 2-cell stage embryo+number of unfertilized ovum)×100
The TYH culture medium used for pre-incubation of sperms was prepared according to the above-described composition excepting that polyvinyl alcohol (1.0 mg/ml, available from SIGMA) was used instead of bovine serum albumin, and methyl-β-cyclodextrin (0.75 mM, available from SIGMA) was added. Further, the concentration of glutathione in the TYH culture medium was 1 mM, preparation was carried out in the same manner as in Example 1, and glutathione was added to the TYH culture medium directly before use. The influence on fertilization rate was compared among those containing methyl-β-cyclodextrin, those containing glutathione and those containing both compounds.
Fertilization was conducted with 90 μl of an HTF culture medium (in the case of addition of glutathione, the concentration was 1 mM) containing cumulus-oocyte complexes (COCs), in the same manner as in Example 1 (IVF/glutathione in table). As the sperm, frozen sperms of C57BL/6J mice were used, and processed according to FIG. 1. Thawed sperms were pre-incubated in a TYH culture medium (±glutathione, ±methyl-β-cyclodextrin) at 37° C. for 30 minutes, and sperms showing motility were collected and used for fertilization. The experiment was conducted five times.

[3] = tested on: zona pellucida of mouse fresh unfertilized ovums
Experimental: Mouse fresh unfertilized ovums in which cumulus cells had been removed prepared according to the above-described “1. Preparation of ovum” were prepared. The ovums were treated with an HTF culture medium containing glutathione at a concentration of 100 mM (30.7 mg/ml) at 20° C. for 90 seconds. The operation conducted is explained referring to FIG. 7. Onto the bottom of a petri dish, 10 μl of a glutathione-containing HTF culture medium was dropped, and 10 embryos were inserted into this. […] After confirmation of disappearance of zona pellucida, the embryos were immediately diluted with 1000 μl of an HTF culture medium containing no glutathione, for avoiding damage on the embryos. Thereafter, the zona pellucida-eliminated embryos were transferred into a 100 μl drop of HTF, and further, transferred into a 100 μl drop of HTF twice, thus continuing incubation.
Elimination of the zona pellucida of an unfertilized ovum was conducted in the same manner as in Example 4 excepting use of an HTF culture medium having a glutathione concentration of 50 mM (15.4 mg/ml).
Mouse fresh unfertilized ovums in which cumulus cells had been removed prepared according to the above-described “1. Preparation of oocyte” were prepared, then, 10 μl of an HTF culture medium containing glutathione at various concentrations (5, 10, 25, 50, 100, 200 and 300 mM) was dropped onto the bottom of a petri dish, and 20 ovums were inserted into this, and the time until elimination of zona pellucida was measured.

[4] = tested on: mouse frozen unfertilized ovums
Experimental: According to an ordinary method, mouse frozen unfertilized ovums were prepared using 8-week old female mice.

[5] = tested on: 2-cell stage embryos transplanted into female mice; details: fertilization and incubation in HTF with 1 mM glutathione; frozen C57BL/6J sperms
Description: As the receptive female, ICR mice are used, and on the day before transplantation, external genitals are observed and those in the proestrus stage are selected and allowed to live together with vasoligated males. On the following day, those showing vaginal plug are used as the receptive female (on day 1 of pseudopregnancy). The skin and abdominal wall of the anesthetized receptive female are incised, and part of ovary, oviduct and uterus is exposed to the outside of the body through the incised portion, and fat adhered to ovary is fixed by a clamp. A 200 μl drop for transplantation is produced at the center of a dish, and embryos to be transplanted (20/individual) are transferred into the drop for transplantation. Next, 10 embryos are sucked together with a small amount of an incubation solution into a transplantation capillary. About ½ to ⅔ of the circumference of oviduct is incised, and the capillary containing embryos is inserted through the incised portion toward ampulla of oviduct and embryos are transplanted. Also into the opposite oviduct, embryos are transplanted by the same operation procedure.
The offspring rate (implanting rate) after embryo transplantation is determined according to the following formula. Offspring development rate (%)=(number of offspring)/(number of transplanted embryo)×100 […]

[6] = tested on: mouse embryo in the early stages of development (8-cell stage embryo); details: glutathione 100 mM, 20° C., 90 seconds
Description: The zona pellucida of a mouse embryo in the early stages of development (8-cell stage embryo) used for production of a genetically modified mouse was eliminated.

[7] = glutathione 100 mM (30.7 mg/ml), 20° C.
[8] = freeze-thawed ovums, zona pellucida eliminated with 100 mM glutathione

Compound: N[C@@H](CCC(=O)N[C@@H](CS)C(=O)NCC(=O)O)C(=O)O [glutathione, reduced glutathione]
- glutathione concentration at which swelling of zona pellucida was recognized remarkably [1]: ≥ 2 mM
- swelling of zona pellucida ([1]; HTF with glutathione at various concentration): swelling of zona pellucida was confirmed depending on the glutathione concentration
- effect of treating unfertilized ovums on fertilization rate ([2]; glutathione 1 mM in IVF medium): remarkable improvement in fertilization rate
- number of 2-cell stage embryo(%) ([2]; glutathione + (1 mM), IVF glutathione −): 15%
- number of 2-cell stage embryo ([2]; glutathione + (1 mM), IVF glutathione −, 344 oocytes): 53
- number of 2-cell stage embryo(%) ([2]; glutathione +, IVF glutathione +): 38%
- number of 2-cell stage embryo ([2]; glutathione +, IVF glutathione +, 371 oocytes): 140
- number of 2-cell stage embryo(%) ([2]; glutathione −, IVF glutathione + (1 mM)): 36%
- number of 2-cell stage embryo ([2]; glutathione −, IVF glutathione + (1 mM), 381 oocytes): 136
- effect of sperm pre-incubation on fertilization rate ([2]; sperms pre-incubated with 1 mM glutathione or 0.75 mM MBCD, 37° C., 30 minutes): improvement in fertilization rate was not observed
- glutathione concentration at which zona pellucida was eliminated [3]: ≥ 50 mM
- condition of zona pellucida ([3]; glutathione 5 mM in HTF): thinning
- condition of zona pellucida ([3]; glutathione 10 mM in HTF): thinning
- condition of zona pellucida ([3]; glutathione 25 mM in HTF): thinning
- condition of zona pellucida ([3]; glutathione 50 mM in HTF): elimination
- time (second) necessary for lysis of zona pellucida ([3]; glutathione 50 mM in HTF): <1,500 second
- zona pellucida-eliminated embryos produced ([3]; glutathione 50 mM, using 20 embryos, 2 experiments): 20
- time after which zona pellucida began to become thin (swell) [3, 7]: 30 s
- time after which zona pellucida disappeared completely [3, 7]: 90 s
- condition of zona pellucida ([3]; glutathione 100 mM in HTF): elimination
- time (second) necessary for lysis of zona pellucida ([3]; glutathione 100 mM in HTF): <60 s
- zona pellucida-eliminated embryos produced ([3]; glutathione 100 mM, using 70 embryos, 10 experiments): 70
- condition of zona pellucida ([3]; glutathione 200 mM in HTF): elimination
- time (second) necessary for lysis of zona pellucida ([3]; glutathione 200 mM in HTF): <50 s
- condition of zona pellucida ([3]; glutathione 300 mM in HTF): elimination
- time (second) necessary for lysis of zona pellucida ([3]; glutathione 300 mM in HTF): <10 s
- fertilization rate [4, 8]: 25%
- fertilization rate (fertilized/total) [4, 8]: 125/492
- condition of zona pellucida of freeze-thawed unfertilized ovum ([4]; glutathione 100 mM, 20° C., 90 seconds): the zona pellucida of a freeze-thawed unfertilized ovum was eliminated
- offspring development rate [5]: 53.8%
- offspring development rate (offspring/transplanted embryos) [5]: 43/80
- elimination of zona pellucida of 8-cell stage embryo [6]: elimination of zona pellucida from a 8-cell stage embryo
